Columns and labels:
Format in all cases: cell-based
cells = assay: MTT assay of cell viability after 24 hours topical application; parameters: cell viability: dose or concentration left out as unconfirmed
Method: Test materials were applied topically for 24 hours and an MTT assay was used to check the viability of cells.
The relative results are provided in the following Table A, with the untreated group defining 100% viability, and shown in FIG. 1. * indicates p≤0.05 and ** indicates p≤0.01 statistical significance after performing unpaired t-test.

APOB = assay: qPCR gene expression in tissues treated topically, APOB; details: topical, without radiation exposure
Method: (§1) Next, changes in gene expression were measured in tissues treated topically with the formulations (without radiation exposure) using qPCR. […] Five genes were examined: APOB, CSF2, IL24, MT1F, and MT1G.
(§2) Statistical significance was determined using unpaired t-test, P<0.05, N=3, and are indicated in bold. The results are provided in Table B in both linear fold change values (FC) and in percent change.

IL24 = assay: qPCR gene expression in tissues treated topically, IL24; details: topical, without radiation exposure
Method: (§3) Next, changes in gene expression were measured in tissues treated topically with the formulations (without radiation exposure) using qPCR. This provides evidence that the CBD is being absorbed by the tissues. Five genes were examined: APOB, CSF2, IL24, MT1F, and MT1G.
as §2, with “change. It is noted that changes in gene expression in general were only seen in the treatments where CBD was used.” for “change.”

MT1F = assay: qPCR gene expression in tissues treated topically, MT1F; details: topical, without radiation exposure
Method: as §3
as §2, with “change. It is noted that changes in gene expression in general were only seen in the treatments where CBD was used.” for “change.”

CSF2 = assay: qPCR gene expression in tissues treated topically, CSF2; details: topical, without radiation exposure
Method: as §1, §2

MT1G = assay: qPCR gene expression in tissues treated topically, MT1G; details: topical, without radiation exposure
Method: as §3
as §2, with “change. It is noted that changes in gene expression in general were only seen in the treatments where CBD was used.” for “change.”

## C=C(C)[C@@H]1CCC(C)=C[C@H]1c1c(O)cc(CCCCC)cc1O [CBD, 2-[(1R,6R)-6-Isopropenyl-3-methylcyclohex-2-en-1-yl]-5-pentylbenzene-1,3-diol]
cells
  cell viability: significant increase
APOB; 1 mg/mL CBD
  APOB gene expression, % Δ (percent change): 23%
  APOB gene expression, FC (linear fold change): 1.23
APOB; 10 mg/mL CBD
  APOB gene expression, % Δ (percent change): 0%
  APOB gene expression, FC (linear fold change): 1.00
APOB; 30 mg/mL CBD
  APOB gene expression, % Δ (percent change): −16%
  APOB gene expression, FC (linear fold change): −1.19
APOB; 60 mg/mL CBD
  APOB gene expression, % Δ (percent change): 51%
APOB; 120 mg/mL CBD
  APOB gene expression, % Δ (percent change): −9%
  APOB gene expression, FC (linear fold change): −1.10
APOB; 250 mg/mL CBD
  APOB gene expression, % Δ (percent change): −60%
  APOB gene expression, FC (linear fold change): −2.48
APOB; 500 mg/mL CBD
  APOB gene expression, % Δ (percent change): −96%
  APOB gene expression, FC (linear fold change): −22.22
APOB; 750 mg/mL CBD
  APOB gene expression, % Δ (percent change): −96%
  APOB gene expression, FC (linear fold change): −25.64
IL24; 1 mg/mL CBD
  IL24 gene expression, % Δ (percent change): 55%
IL24; 10 mg/mL CBD
  IL24 gene expression, % Δ (percent change): 48%
IL24; 30 mg/mL CBD
  IL24 gene expression, % Δ (percent change): −70%
IL24; 60 mg/mL CBD
  IL24 gene expression, % Δ (percent change): −11%
IL24; 120 mg/mL CBD
  IL24 gene expression, % Δ (percent change): 63%
IL24; 250 mg/mL CBD
  IL24 gene expression, % Δ (percent change): 59%
IL24; 500 mg/mL CBD
  IL24 gene expression, % Δ (percent change): −6%
IL24; 750 mg/mL CBD
  IL24 gene expression, % Δ (percent change): 54%
MT1F; 1 mg/mL CBD
  MT1F gene expression, % Δ (percent change): 147%
MT1F; 10 mg/mL CBD
  MT1F gene expression, % Δ (percent change): 40%
MT1F; 30 mg/mL CBD
  MT1F gene expression, % Δ (percent change): −65%
MT1F; 60 mg/mL CBD
  MT1F gene expression, % Δ (percent change): 134%
MT1F; 120 mg/mL CBD
  MT1F gene expression, % Δ (percent change): 602%
MT1F; 250 mg/mL CBD
  MT1F gene expression, % Δ (percent change): 2163%
MT1F; 500 mg/mL CBD
  MT1F gene expression, % Δ (percent change): 3963%
MT1F; 750 mg/mL CBD
  MT1F gene expression, % Δ (percent change): 2971%
CSF2; 1 mg/mL CBD
  CSF2 gene expression, % Δ (percent change): 117%
CSF2; 10 mg/mL CBD
  CSF2 gene expression, % Δ (percent change): 118%
CSF2; 30 mg/mL CBD
  CSF2 gene expression, % Δ (percent change): −19%
CSF2; 60 mg/mL CBD
  CSF2 gene expression, % Δ (percent change): 186%
CSF2; 120 mg/mL CBD
  CSF2 gene expression, % Δ (percent change): 448%
CSF2; 250 mg/mL CBD
  CSF2 gene expression, % Δ (percent change): 763%
CSF2; 500 mg/mL CBD
  CSF2 gene expression, % Δ (percent change): −30%
CSF2; 750 mg/mL CBD
  CSF2 gene expression, % Δ (percent change): 93%
MT1G; 1 mg/mL CBD
  MT1G gene expression, % Δ (percent change): −41%
MT1G; 10 mg/mL CBD
  MT1G gene expression, % Δ (percent change): −4%
MT1G; 30 mg/mL CBD
  MT1G gene expression, % Δ (percent change): 92%
MT1G; 60 mg/mL CBD
  MT1G gene expression, % Δ (percent change): 2526%
MT1G; 120 mg/mL CBD
  MT1G gene expression, % Δ (percent change): 5186%
MT1G; 250 mg/mL CBD
  MT1G gene expression, % Δ (percent change): 13439%
MT1G; 500 mg/mL CBD
  MT1G gene expression, % Δ (percent change): 33439%
MT1G; 750 mg/mL CBD
  MT1G gene expression, % Δ (percent change): 23223%

## Triton-X
cells; positive control, topical 24 hours, untreated = 100%
  Relative Viability: 3%

Reference: patent publication US20230039887A1, “COMPOSITIONS FOR TOPICAL TREATMENT OF RADIATION DERMATITIS” (priority 2021, published 2023)
